# Earlier results as cited in patent US7579489B2, “Processes for the preparation and purification of hydroxymethylfuraldehyde and derivatives” (Archer-Daniels-Midland Company, priority 2004, dated 2009).
# Settings: water/octanol; values taken from Hansch & Leo (1979) and Leo, Hansch & Elkins (1971)
row,Log P,Structure (SMILES)
1,0.66,CCOC(C)=O [Ethyl acetate]
2,0.91,CCCC(C)=O [2-Pentanone]
3,1.83,CCCCCC(C)=O [2-Heptanone]
4,−0.27,C1COCCO1 [Dioxane]
5,1.32,CC(=O)CC(C)C [Methyl isobutyl ketone]

row,Structure (SMILES),Log P
1,CCCCOC(C)=O [Butyl acetate],1.71
2,CCC(C)=O [2-Butanone],0.29
3,ClC(Cl)Cl [Chloroform],2.24
4,NC=O [Formamide],−1.51
